Data on 18 molecules can be found in ChEMBL document CHEMBL4602738, “Looking toward the Rim of the Active Site Cavity of Druggable Human Carbonic Anhydrase Isoforms” (ACS Med Chem Lett, 2020).

In one assay the target is Carbonic anhydrase 2 (Homo sapiens, UniProt P00918). Put plainly: Inhibition of human CA2 preincubated for 15 mins by stopped-flow carbon dioxide hydration assay.
The target in the next assay is Carbonic anhydrase 9 (Homo sapiens, UniProt Q16790).

Description for Carbonic anhydrase 9: Inhibition of human CA9 preincubated for 15 mins by stopped-flow carbon dioxide hydration assay

Broadly, the Ki is the dissociation constant of the complex between target and ligand, obtained from inhibition or displacement. Higher therefore signals lower affinity. As to `NS(=O)(=O)c1ccc(C(=O)N2CCN(C(=O)c3cccc(Br)c3)CC2)cc1`, the values for the Ki at Carbonic anhydrase 2 and on Carbonic anhydrase 9 were 0.0006 µM and 0.0162 µM, respectively.

In the case of `Nc1ccccc1C(=O)N1CCN(C(=O)c2ccc(S(N)(=O)=O)cc2)CC1`, the Ki at Carbonic anhydrase 2 was 0.0041 µM; on Carbonic anhydrase 9, 0.0191 µM.

Molecule `NS(=O)(=O)c1ccc(C(=O)N2CCN(C(=O)c3ccccc3)CC2)cc1` had a Ki at Carbonic anhydrase 9 of 0.0371 µM.

As for `NS(=O)(=O)c1ccc(C(=O)N2CCN(C(=O)c3ccc(F)cc3)CC2)cc1`, the results for the Ki at Carbonic anhydrase 2 and at Carbonic anhydrase 9 were 0.0324 µM and 0.332 µM, respectively.

In the case of `NS(=O)(=O)c1ccc(C(=O)N2CCN(C(=O)c3ccc(Br)cc3)CC2)cc1`, the Ki was determined as 0.0044 µM at Carbonic anhydrase 2 and 0.008 µM on Carbonic anhydrase 9.

On to `NS(=O)(=O)c1ccc(C(=O)N2CCN(C(=O)c3ccccc3Cl)CC2)cc1`, for which the affinity at Carbonic anhydrase 9, expressed as Ki, was 0.0622 µM.

With `NS(=O)(=O)c1ccc(C(=O)N2CCN(C(=O)c3ccc(Cl)cc3)CC2)cc1`, the Ki at Carbonic anhydrase 2 was 0.0072 µM; at Carbonic anhydrase 9, 0.0292 µM.

For `NS(=O)(=O)c1ccc(C(=O)N2CCN(C(=O)c3cccc(Cl)c3)CC2)cc1`, the values for the inhibition constant Ki on Carbonic anhydrase 2 and on Carbonic anhydrase 9 were 0.0225 µM and 0.0544 µM, respectively.

Consider `Nc1cccc(C(=O)N2CCN(C(=O)c3ccc(S(N)(=O)=O)cc3)CC2)c1`, for which the results for the Ki on Carbonic anhydrase 2 and on Carbonic anhydrase 9 were 0.0511 µM and 0.0152 µM, respectively.

Regarding `COc1ccccc1C(=O)N1CCN(C(=O)c2ccc(S(N)(=O)=O)cc2)CC1`, the Ki is 0.0198 µM at Carbonic anhydrase 2 and 0.25 µM on Carbonic anhydrase 9.

Consider `Nc1ccc(C(=O)N2CCN(C(=O)c3ccc(S(N)(=O)=O)cc3)CC2)cc1`, for which the results for the Ki at Carbonic anhydrase 2 and at Carbonic anhydrase 9 were 0.0788 µM and 0.0143 µM, respectively.

In the case of `NS(=O)(=O)c1ccc(C(=O)N2CCN(C(=O)c3cccc(F)c3)CC2)cc1`, the Ki on Carbonic anhydrase 2 was 0.00041 µM; on Carbonic anhydrase 9 it was 0.0038 µM.

For `NS(=O)(=O)c1ccc(C(=O)N2CCN(C(=O)c3ccccc3F)CC2)cc1`, the Ki was 0.0284 µM on Carbonic anhydrase 2 and 0.0687 µM at Carbonic anhydrase 9.

As to `NS(=O)(=O)c1ccc(C(=O)N2CCN(C(=O)c3cccc([N+](=O)[O-])c3)CC2)cc1`, the Ki came to 0.0286 µM at Carbonic anhydrase 2 and 0.0022 µM on Carbonic anhydrase 9.

Turning to `NS(=O)(=O)c1ccc(C(=O)N2CCN(C(=O)c3ccc([N+](=O)[O-])cc3)CC2)cc1`, the Ki turned out to be 0.0239 µM on Carbonic anhydrase 2 and 0.0112 µM at Carbonic anhydrase 9.

`COc1cccc(C(=O)N2CCN(C(=O)c3ccc(S(N)(=O)=O)cc3)CC2)c1`: the Ki on Carbonic anhydrase 2 was 0.0363 µM; at Carbonic anhydrase 9, 0.36 µM.

As for `NS(=O)(=O)c1ccc(C(=O)N2CCN(C(=O)c3ccccc3[N+](=O)[O-])CC2)cc1`, the Ki at Carbonic anhydrase 2 is 0.0424 µM; on Carbonic anhydrase 9 it was 0.0098 µM.

Regarding `NS(=O)(=O)c1ccc(C(=O)N2CCN(C(=O)c3ccccc3Br)CC2)cc1`, the Ki on Carbonic anhydrase 2 was found to be 0.003 µM; on Carbonic anhydrase 9 it was 0.0604 µM.
